Values quoted from earlier work in patent publication US12527979B2, “Treatment of HER3-mutated cancer by administration of anti-HER3 antibody-drug conjugate” (DAIICHI SANKYO COMPANY, LIMITED, priority 2018, dated 2026).
Like-named read-outs stand apart in the source and are kept apart here.

Assays:
topoisomerase I = target: T1, topoisomerase I (Homo sapiens, UniProt P11387)
T1 sequence (P11387 1-765): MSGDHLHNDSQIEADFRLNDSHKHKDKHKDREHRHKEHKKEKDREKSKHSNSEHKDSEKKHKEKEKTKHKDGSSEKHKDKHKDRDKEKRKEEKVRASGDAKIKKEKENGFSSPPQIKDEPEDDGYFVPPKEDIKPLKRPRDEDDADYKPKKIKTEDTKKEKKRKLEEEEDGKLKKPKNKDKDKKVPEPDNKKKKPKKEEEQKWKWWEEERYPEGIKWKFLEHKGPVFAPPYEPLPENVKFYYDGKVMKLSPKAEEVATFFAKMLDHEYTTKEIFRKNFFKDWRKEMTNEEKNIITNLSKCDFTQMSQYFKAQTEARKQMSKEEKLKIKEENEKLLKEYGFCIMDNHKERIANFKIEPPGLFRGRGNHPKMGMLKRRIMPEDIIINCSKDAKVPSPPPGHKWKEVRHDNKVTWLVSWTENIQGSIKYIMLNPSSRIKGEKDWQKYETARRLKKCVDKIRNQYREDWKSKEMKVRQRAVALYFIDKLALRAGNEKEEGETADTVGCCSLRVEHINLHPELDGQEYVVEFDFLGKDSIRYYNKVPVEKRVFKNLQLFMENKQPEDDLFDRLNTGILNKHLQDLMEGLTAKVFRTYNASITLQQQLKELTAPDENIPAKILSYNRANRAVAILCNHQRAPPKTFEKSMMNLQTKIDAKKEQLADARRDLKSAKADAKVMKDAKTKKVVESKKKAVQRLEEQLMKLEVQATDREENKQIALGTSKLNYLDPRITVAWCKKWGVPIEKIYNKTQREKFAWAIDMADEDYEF

HER3-mutated cancers [1] = conditions: in vitro and in vivo, in situations where HER2 is overexpressed
HER3-mutated cancers [2] = conditions: clinical studies

## CC[C@@]1(O)C(=O)OCc2c1cc1n(c2=O)Cc2c-1nc1cc(F)c(C)c3c1c2[C@@H](NC(=O)CO)CC3
Topoisomerase I
  topoisomerase I inhibitory effect: confirmed to have a topoisomerase I inhibitory effect

## CS(=O)(=O)CCNCc1ccc(-c2ccc3ncnc(Nc4ccc(OCc5cccc(F)c5)c(Cl)c4)c3c2)o1 [lapatinib]
HER3-mutated cancers [1]
  effectiveness against HER3-mutated cancers: exhibited effectiveness

## CCOc1cc2ncc(C#N)c(Nc3ccc(OCc4ccccn4)c(Cl)c3)c2cc1NC(=O)/C=C/CN(C)C [neratinib]
HER3-mutated cancers [2]
  effectiveness against HER3-mutated cancers: no effectiveness
